According to patent US20260337172A1, “AMINOPIPERAZINES WITH BROAD SPECTRUM ANTIMICROBIAL ACTIVITY” (The United States Government as represented by the …, priority 2022, published 2026):
In brackets after ≈: the same amount, converted by molar mass. Like-named read-outs stand apart in the source and are kept apart here.

Test system: C. auris
Assay: minimum inhibitory concentration, C. auris (Table 3)
Type: cell-based, Candida auris
Conditions: Candidozyma auris
Text: Table 2 and Table 3 below show the minimum inhibitory concentration values for the synthesized compounds as tested on bacterial strains.

[1] = 50% inhibition, first of two values in cell, read-out: minimum inhibitory concentration, C. auris 50% inhib.
[2] = 50% inhibition, second of two values in cell, read-out: minimum inhibitory concentration, C. auris 50% inhib.
[3] = 90% inhibition, first of two values in cell, read-out: minimum inhibitory concentration, C. auris 90% inhib.
[4] = 90% inhibition, second of two values in cell, read-out: minimum inhibitory concentration, C. auris 90% inhib.

Row | SMILES | MIC [1] | MIC [2] | MIC [3] | MIC [4]
1 | C[C@@H]1[C@H](O)[C@@H](C)/C=C/C=C/C=C/C=C/C=C/C=C/C=C/[C@H](O[C@@H]2O[C@H](C)[C@@H](O)[C@H](N)[C@@H]2O)C[C@@H]2O[C@](O)(C[C@@H](O)C[C@@H](O)[C@H](O)CC[C@@H](O)C[C@@H](O)CC(=O)O[C@H]1C)C[C@H](O)[C@H]2C(=O)O [Amphotericin B, reference compound] | 1 µg/mL (≈ 1.08 µM) | 1 µg/mL (≈ 1.08 µM) | 1 µg/mL (≈ 1.08 µM) | 1 µg/mL (≈ 1.08 µM)
2 | CN1CCN(/N=C/c2ccc(Cl)c([N+](=O)[O-])c2)CC1 [Compound 3] | 256 µg/mL (≈ 905 µM) | 128 µg/mL (≈ 453 µM) | 256 µg/mL (≈ 905 µM) | 256 µg/mL (≈ 905 µM)
3 | CN1CCN(/N=C/c2ccc([N+](=O)[O-])cc2)CC1 [Compound 4] | 256 µg/mL (≈ 1030 µM) | 256 µg/mL (≈ 1030 µM) | > 256 µg/mL | > 256 µg/mL
4 | COc1ccc(/C=N/N2CCN(C)CC2)c2ccccc12 [Compound 5, (E)-1-(4-methoxynaphthalen-1-yl)-N-(4-methylpiperazin-1-yl)methanimine] | 128 µg/mL (≈ 452 µM) | 128 µg/mL (≈ 452 µM) | 256 µg/mL (≈ 903 µM) | 256 µg/mL (≈ 903 µM)
5 | CN1CCN(/N=C/c2ccc(-c3ccccc3)cc2)CC1 [Compound 17] | 64 µg/mL (≈ 229 µM) | 64 µg/mL (≈ 229 µM) | 128 µg/mL (≈ 458 µM) | 128 µg/mL (≈ 458 µM)
6 | COc1cccc(/C=N/N2CCN(C)CC2)c1O [Compound 20] | 128 µg/mL (≈ 513 µM) | 128 µg/mL (≈ 513 µM) | 256 µg/mL (≈ 1030 µM) | 256 µg/mL (≈ 1030 µM)
